Measured values from patent publication US20160312179A1 (GLAXOSMITHKLINE INTELLECHTUAL PROPERTY (NO.2) LIMITED, priority 2013, published 2016).
Entries after “also recorded” stand apart in the source; their conditions may differ.

Legend:
Type in all cases: cell-based, Chinese hamster
DG44 CHO [1] = experiment: Dose response study in shake flasks: cell-specific productivity
Method: (§1) Several TCA cycle intermediates were selected for a dose response experiment based on commercial availability, either the acid or its sodium salt were purchased from Sigma Aldrich to prepare stock solution feeds to be used in the study. Selected compounds were pyruvic acid, citric acid, α-ketoglutaric acid, fumaric acid, malic acid (or sodium salts), and oxaloacetic acid (no sodium salt available).
(§2) Oxaloacetic acid and malic acid were added to the culture to a final concentration of 5 mM, 10 mM and 15 mM. […] FIG. 1 summarizes the TCA cycle components tested and their location in the pathway. Table 1 summarizes the operation condition of shake flasks in the study as well as feed schedules for the dose response study.
(§3) Control shake flasks were set up every time an arm of the study started. Those control shake flasks were fed-batch cultures without addition of any TCA intermediate. All conditions tested were executed in duplicate shake flasks.
Shake flask cultures were sampled every other day to determine Total Cell Concentration (TCC), Viable Cell Concentration (VCC), cell viability, metabolite (glucose, lactate, glutamine, glutamate, and ammonia) concentration, and osmolality. The master sample was divided into cell-based assays (TCC, viability assays) and cell-free assays (metabolite concentration, osmolality). […] Titer was determined on samples filtered through a 0.22 μm-filter.
(§4) TCC, VCC and viability were determined using an automated cell counter based on the trypan blue exclusion method (ViCell XR, Beckman Coulter). […] Incubation to allow dissociation was carried out for 20-25 minutes at 37° C. under gentle shaking Metabolites were measured using Nova Bioprofile (Nova Bioprofile 400); which operates on enzyme-based electrochemical reactions. […]
Integral of Viable Cells was calculated using VCC data and applying the trapezoid rule following the formula,
Specific Productivity was calculated using the last titer data point divided by last calculated IVC value.

DG44 CHO [2] = experiment: Dose response study in shake flasks: ammonia (NH4+) accumulation and production; conditions: for effect on ammonia (NH4+) accumulation: dose response, intermediate used alone, compared to control culture
Method: as §1, §2, §3
(§5) Shake flask cultures were sampled every other day to determine Total Cell Concentration (TCC), Viable Cell Concentration (VCC), cell viability, metabolite (glucose, lactate, glutamine, glutamate, and ammonia) concentration, and osmolality. The master sample was divided into cell-based assays (TCC, viability assays) and cell-free assays (metabolite concentration, osmolality). Back-up samples (cell-free supernatants) for future reference were produced by centrifuging a portion of the master sample and aliquoting 1.8 mL in Nunc cryovials which were subsequently stored at −70° C. Titer was determined on samples filtered through a 0.22 μm-filter.
(§6) TCC, VCC and viability were determined using an automated cell counter based on the trypan blue exclusion method (ViCell XR, Beckman Coulter). Samples were pre-treated with protease prior to cell counting (TripLE, Life Technologies, USA) using equal volumes of protease stock solution and culture. Incubation to allow dissociation was carried out for 20-25 minutes at 37° C. under gentle shaking Metabolites were measured using Nova Bioprofile (Nova Bioprofile 400); which operates on enzyme-based electrochemical reactions. Osmolality measurement was based on the freezing-point depression method (Advanced Instruments, Model N/A). Filtered cell-free samples were sent to the Bioanalytical Development group for antibody accumulation and binding activity determination (Biacore).

DG44 CHO [3] = experiment: DOE interaction study in shake flasks: ammonia (NH4+) accumulation and production; conditions: for effect on ammonia (NH4+) generation / accumulation: single intermediate at selected concentration
Method: The experiment to test interactions of all the selected components was carried out in two blocks. Each one of the blocks was designed to contain center points and control shake flasks (batch cultures, no addition of any component). […] All conditions were run in duplicates. Shake flask cultures were sampled every other day to determine Total Cell Concentration (TCC), Viable Cell Concentration (VCC), cell viability, metabolite (glucose, lactate, glutamine, glutamate, and ammonia) concentration, and osmolality. The master sample was divided into cell-based assays (TCC, viability assays) and cell-free assays (metabolite concentration, osmolality). Back-up samples (cell-free supernatants) for future reference were produced by centrifuging a portion of the master sample and aliquoting 1.8 mL in Nunc cryovials which were subsequently stored at −70° C. Titer was determined on samples filtered through a 0.22 μm-filter. TCC, VCC and viability were determined using an automated cell counter based on the trypan blue exclusion method (ViCell XR, Beckman Coulter). Samples were pre-treated with protease prior to cell counting (TripLE, Life Technologies, USA) using equal volumes of protease stock solution and culture. Incubation to allow dissociation was carried out for 20-25 minutes at 37° C. under gentle shaking Metabolites were measured using Nova Bioprofile (Nova Bioprofile 400); which operates on enzyme-based electrochemical reactions. Osmolality measurement was based on the freezing-point depression method (Advanced Instruments, Model N/A). Filtered cell-free samples were sent to the Bioanalytical Development group for antibody accumulation and binding activity determination (Biacore).

DG44 CHO [4] = experiment: Dose response study in shake flasks: lactate accumulation; conditions: 45 mM added to the culture
Method: as §1
as §2, with “study. […]” for “study.”
Shake flask cultures were sampled every other day to determine Total Cell Concentration (TCC), Viable Cell Concentration (VCC), cell viability, metabolite (glucose, lactate, glutamine, glutamate, and ammonia) concentration, and osmolality. […] Titer was determined on samples filtered through a 0.22 μm-filter.
as §4

DG44 CHO [5] = experiment: Dose response study of TCA intermediates in fed-batch shake flasks: viable cell concentration / viability; conditions: for effect on cell growth / viable cell concentration after addition: dose response, all concentrations tested, compared to control culture
Text: Several TCA cycle intermediates were selected for a dose response experiment based on commercial availability, either the acid or its sodium salt were purchased from Sigma Aldrich to prepare stock solution feeds to be used in the study.
FIG. 1 summarizes the TCA cycle components tested and their location in the pathway. Table 1 summarizes the operation condition of shake flasks in the study as well as feed schedules for the dose response study.
as §3, §5, §6

DG44 CHO [6] = experiment: DOE interaction study in shake flasks: cell-specific productivity; conditions: 20 mM, alone
Method: The experiment to test interactions of all the selected components was carried out in two blocks. Each one of the blocks was designed to contain center points and control shake flasks (batch cultures, no addition of any component). […] All conditions were run in duplicates. Shake flask cultures were sampled every other day to determine Total Cell Concentration (TCC), Viable Cell Concentration (VCC), cell viability, metabolite (glucose, lactate, glutamine, glutamate, and ammonia) concentration, and osmolality. The master sample was divided into cell-based assays (TCC, viability assays) and cell-free assays (metabolite concentration, osmolality). […] Titer was determined on samples filtered through a 0.22 μm-filter. TCC, VCC and viability were determined using an automated cell counter based on the trypan blue exclusion method (ViCell XR, Beckman Coulter). […] Incubation to allow dissociation was carried out for 20-25 minutes at 37° C. under gentle shaking Metabolites were measured using Nova Bioprofile (Nova Bioprofile 400); which operates on enzyme-based electrochemical reactions. […] Integral of Viable Cells was calculated using VCC data and applying the trapezoid rule following the formula, Specific Productivity was calculated using the last titer data point divided by last calculated IVC value.

CC(=O)C(=O)O [pyruvic acid]
cell-specific productivity (DG44 CHO [1]; 45 mM, control averaged 31 pg/cell/day): ~24 pg/cell/day | ammonia accumulated, compared to control shake flasks (DG44 CHO [2]; 15 mM): slightly higher level than that found in control shake flasks | effect on the reduction of ammonia (DG44 CHO [2]; 15 mM): minor effect on the reduction of ammonia | ammonia accumulated to (DG44 CHO [2]; 30 mM): 8 mM | ammonia consumption effect lasted to culture day (DG44 CHO [2]; 30 mM): 8 days | ammonia consumption induced up to culture day (DG44 CHO [2]; 45 mM added on Day 5): 10 days | final ammonia concentration (DG44 CHO [2]; 45 mM added on Day 5): 7 mM | effect on ammonia (NH4+) accumulation (DG44 CHO [2]): dependent on the dose, but the effect lasts only for a few days | effect on ammonia (NH4+) generation / accumulation (DG44 CHO [3]): suppress ammonia generation for a few days | effect on ammonia (NH4+) generation / accumulation (DG44 CHO [3]; listed as pyruvate): partially reduced | lactate accumulation (DG44 CHO [4]): around 3 g/L

O=C(O)CC(=O)C(=O)O [oxaloacetic acid]
effect on final cell-specific productivity (DG44 CHO [1]; dose response, compared to control): sustained cell-specific productivity values | cell-specific production rate and NH4+ accumulation (DG44 CHO [2]; 10 mM and 15 mM): reduce | concentrations in the culture that control ammonia and maintain cell-specific productivity (DG44 CHO [2]; dose response conclusion): 5 to 15 mM | effect on ammonia (NH4+) accumulation (DG44 CHO [2]): reduction in the ammonia accumulation levels | effect on ammonia (NH4+) generation / accumulation (DG44 CHO [3]): partially reduced | effect on cell growth / viable cell concentration after addition (DG44 CHO [5]): did not have any deleterious effect on cell growth

O=C(O)/C=C/C(=O)O [fumaric acid]
doses needed to stabilize ammonia production (and accumulation) (DG44 CHO [2]; after Day 10 of culture): 30 mM and 45 mM | effect on ammonia (NH4+) accumulation (DG44 CHO [2]): only partial effect | effect on ammonia (NH4+) generation / accumulation (DG44 CHO [3]): slows down | effect on cell growth / viable cell concentration after addition (DG44 CHO [5]): reduced cell growth

O=C(O)CCC(=O)C(=O)O [α-ketoglutaric acid]
reduction of the cell-specific productivity compared to the control (DG44 CHO [1]; used alone (FIGS. 21 and 22)): 10-20% | most effective concentration to reduce production of NH4+ (DG44 CHO [2]; 15, 30, 45 mM tested): 45 mM | cell-specific NH4+ production rate (DG44 CHO [2]; all concentrations tested): reduced | effect on ammonia (NH4+) accumulation (DG44 CHO [2]; listed as α-KG): reduced; also recorded: most effective | effect on ammonia generation (DG44 CHO [3]; 20 mM, alone): control ammonia generation | effect on ammonia (NH4+) generation / accumulation (DG44 CHO [3]): consumed | cell-specific productivity (DG44 CHO [6]): ~30 pg/cell/day | effect on cell growth / viable cell concentration after addition (DG44 CHO [5]): cell division seems to stop

O=C(O)CC(O)(CC(=O)O)C(=O)O [citric acid]
effect on cell growth / viable cell concentration after addition (DG44 CHO [5]): deleterious effects on culture

O=C(O)CC(O)C(=O)O (stereo not shown) [malic acid]
effect on NH4+ accumulation or production (DG44 CHO [2]; 5 mM): not a clear effect | effect on ammonia (NH4+) generation / accumulation (DG44 CHO [3]): suppress ammonia generation for a few days | effect on ammonia (NH4+) generation / accumulation (DG44 CHO [3]; listed as malate): partially reduced | decline in viability compared to control shake flasks (DG44 CHO [5]; 5 mM): no decline in viability | decline in viability (DG44 CHO [5]; 30 mM): fastest decline in viability | concentrations toxic to cells (DG44 CHO [5]; dose response experiment): higher than 5 mM | cell viability of the culture (DG44 CHO [5]; high concentration (15 mM and 30 mM)): induced loss of cell viability
